The values below come from patent publication US9938273B2 (Plexxikon Inc., priority 2015, dated 2018).

For one test, the target named is T1, FLT3-ITD (Homo sapiens, UniProt P36888).
T1 sequence (P36888 1-993): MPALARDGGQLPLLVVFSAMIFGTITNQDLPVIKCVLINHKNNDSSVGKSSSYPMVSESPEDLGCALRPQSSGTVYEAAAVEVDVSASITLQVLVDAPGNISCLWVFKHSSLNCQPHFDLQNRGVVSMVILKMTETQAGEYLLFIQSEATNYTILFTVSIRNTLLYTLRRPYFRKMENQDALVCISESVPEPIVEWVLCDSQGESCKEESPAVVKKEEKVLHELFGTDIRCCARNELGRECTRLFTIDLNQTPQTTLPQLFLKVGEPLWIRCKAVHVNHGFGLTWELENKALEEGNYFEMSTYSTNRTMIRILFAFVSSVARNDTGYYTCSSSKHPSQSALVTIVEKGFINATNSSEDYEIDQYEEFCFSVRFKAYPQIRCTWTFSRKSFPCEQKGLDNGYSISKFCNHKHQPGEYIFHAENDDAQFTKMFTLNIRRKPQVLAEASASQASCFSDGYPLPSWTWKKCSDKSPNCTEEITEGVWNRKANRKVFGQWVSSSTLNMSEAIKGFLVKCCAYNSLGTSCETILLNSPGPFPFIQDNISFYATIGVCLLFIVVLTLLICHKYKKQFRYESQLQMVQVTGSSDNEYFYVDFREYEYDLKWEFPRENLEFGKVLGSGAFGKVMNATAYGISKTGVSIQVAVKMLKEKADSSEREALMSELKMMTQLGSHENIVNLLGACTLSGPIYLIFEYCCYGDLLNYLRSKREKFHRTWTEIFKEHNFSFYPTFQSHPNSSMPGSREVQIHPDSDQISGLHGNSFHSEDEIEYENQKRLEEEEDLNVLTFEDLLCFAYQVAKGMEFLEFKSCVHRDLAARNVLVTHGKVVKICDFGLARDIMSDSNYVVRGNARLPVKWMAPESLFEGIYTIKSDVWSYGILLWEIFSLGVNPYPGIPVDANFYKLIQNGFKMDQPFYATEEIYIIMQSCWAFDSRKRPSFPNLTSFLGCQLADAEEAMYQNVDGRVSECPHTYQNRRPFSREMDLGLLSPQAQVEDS
Put plainly: AlphaScreen kinase assay with recombinant enzyme, FLT3-ITD. Type of test: biochemical. To be noted: 8pt; read-out: FLT3_ITD 8pt: IC50. In a few lines:
(§1)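 Compounds in DMSO added to enzyme plus biotin-poly(Glu4-Tyr) (30 nM) in assay buffer, then ATP added. Streptavidin donor beads added (20 min, RT), then PY20 acceptor beads (60 min, RT), both at 10 μg/mL final in stop/detection buffer. IC50 conditions: 10 μM FLT3-D835Y/ITD, 100 μM c-KIT.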

For a further test, the target named is T2, FLT3-D835Y (Homo sapiens, UniProt P36888, D835Y).
T2 construct: purchased Invitrogen PV3967
T2 sequence (P36888 27-993 D835Y): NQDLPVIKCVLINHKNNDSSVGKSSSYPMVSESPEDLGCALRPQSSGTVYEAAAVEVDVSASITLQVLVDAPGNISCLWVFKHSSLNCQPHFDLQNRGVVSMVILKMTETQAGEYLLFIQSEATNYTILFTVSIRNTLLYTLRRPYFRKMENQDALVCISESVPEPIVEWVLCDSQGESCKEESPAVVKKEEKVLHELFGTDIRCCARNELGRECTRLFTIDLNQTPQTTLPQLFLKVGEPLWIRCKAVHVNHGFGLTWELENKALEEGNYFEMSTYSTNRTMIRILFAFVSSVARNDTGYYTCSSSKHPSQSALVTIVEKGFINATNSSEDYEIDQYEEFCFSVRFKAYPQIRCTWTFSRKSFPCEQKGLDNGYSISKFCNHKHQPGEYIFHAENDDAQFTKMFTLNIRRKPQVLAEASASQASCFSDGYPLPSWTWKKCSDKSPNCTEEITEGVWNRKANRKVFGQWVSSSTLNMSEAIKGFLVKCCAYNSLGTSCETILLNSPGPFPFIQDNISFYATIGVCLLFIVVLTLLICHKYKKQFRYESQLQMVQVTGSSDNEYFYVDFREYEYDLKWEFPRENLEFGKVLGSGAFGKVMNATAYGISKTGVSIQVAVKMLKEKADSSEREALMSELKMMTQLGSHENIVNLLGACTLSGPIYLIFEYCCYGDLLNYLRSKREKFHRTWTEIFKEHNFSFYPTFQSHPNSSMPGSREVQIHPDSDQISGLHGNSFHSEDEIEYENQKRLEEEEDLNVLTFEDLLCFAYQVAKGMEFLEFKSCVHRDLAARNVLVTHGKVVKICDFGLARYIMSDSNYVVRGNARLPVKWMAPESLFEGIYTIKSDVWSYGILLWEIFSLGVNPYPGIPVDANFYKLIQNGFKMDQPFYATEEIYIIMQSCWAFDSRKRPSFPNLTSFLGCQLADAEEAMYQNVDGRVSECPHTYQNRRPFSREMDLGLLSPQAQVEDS
In words: AlphaScreen kinase assay with recombinant enzyme, FLT3-D835Y. Type of test: biochemical. To be noted: 8pt, GMean. The essentials: as §1

With `c1ccc(-c2cc3cc(-c4ccc5[nH]nc(NC6CCNCC6)c5c4)cnc3[nH]2)cc1` [Compound P-0056, 5-(2-phenyl-1H-pyrrolo[2,3-b]pyridin-5-yl)-N-(4-piperidyl)-1H-indazol-3-amine], the IC50 at FLT3-ITD and at FLT3-D835Y was 0.0001 to 10 µM in each case.

Turning to `Cc1ccc(-c2cnc3[nH]c(-c4ccccc4)cc3c2)nc1C(=O)N1CCC(N)CC1` [Compound P-0033, (4-amino-1-piperidyl)-[3-methyl-6-(2-phenyl-1H-pyrrolo[2,3-b]pyridin-5-yl)-2-pyridyl]methanone], the IC50 on FLT3-ITD and on FLT3-D835Y was 0.0001 to 10 µM in each case.

Turning to `NC1CN(C(=O)c2n[nH]c3ccc(-c4cnc5[nH]c(-c6ccccc6)cc5c4)cc23)C1` [Compound P-0029, (3-aminoazetidin-1-yl)-[5-(2-phenyl-1H-pyrrolo[2,3-b]pyridin-5-yl)-1H-indazol-3-yl]methanone], the IC50 at FLT3-ITD and at FLT3-D835Y was 0.0001 to 10 µM throughout.

As for `CNC(=O)C1CCN(C(=O)c2cccc(-c3cnc4[nH]c(-c5ccccc5)cc4c3)n2)CC1` [Compound P-0030, N-methyl-1-[6-(2-phenyl-1H-pyrrolo[2,3-b]pyridin-5-yl)pyridine-2-carbonyl]piperidine-4-carboxamide], the IC50 at FLT3-ITD and on FLT3-D835Y was 0.0001 to 10 µM in each case.

Regarding `CN(C(=O)c1cccc(-c2cnc3[nH]c(-c4ccccc4)cc3c2)n1)C1CCNC1` (stereo not shown) [Compound P-0076, N-methyl-6-(2-phenyl-1H-pyrrolo[2,3-b]pyridin-5-yl)-N-pyrrolidin-3-yl-pyridine-2-carboxamide], the IC50 at FLT3-ITD and on FLT3-D835Y was 0.0001 to 10 µM each time.

With `CNC1CCN(C(=O)c2cccc(-c3cnc4[nH]c(-c5ccccc5)cc4c3)n2)CC1` [Compound P-0041, [4-(methylamino)-1-piperidyl]-[6-(2-phenyl-1H-pyrrolo[2,3-b]pyridin-5-yl)-2-pyridyl]methanone], the IC50 on FLT3-ITD and at FLT3-D835Y was 0.0001 to 10 µM throughout.

With `CC1(N)CCCN(C(=O)c2cccc(-c3cnc4[nH]c(-c5ccccc5)cc4c3)n2)C1` (stereo not shown) [Compound P-0082, (3-amino-3-methyl-1-piperidyl)-[6-(2-phenyl-1H-pyrrolo[2,3-b]pyridin-5-yl)-2-pyridyl]methanone], the IC50 on FLT3-ITD and at FLT3-D835Y was 0.0001 to 10 µM throughout.

As for `N[C@H]1CCN(C(=O)c2cc(-c3cnc4[nH]c(-c5ccccc5)cc4c3)ccn2)C1` [Compound P-0046, [(3S)-3-aminopyrrolidin-1-yl]-[4-(2-phenyl-1H-pyrrolo[2,3-b]pyridin-5-yl)-2-pyridyl]methanone], the IC50 on FLT3-ITD and at FLT3-D835Y was 0.0001 to 10 µM throughout.

As for `NC1CCCN(C(=O)c2cccc(-c3cnc4[nH]c(-c5ccccc5)cc4c3)n2)C1` (stereo not shown) [Compound P-0067, (3-amino-1-piperidyl)-[6-(2-phenyl-1H-pyrrolo[2,3-b]pyridin-5-yl)-2-pyridyl]methanone], the IC50 on FLT3-ITD and at FLT3-D835Y was 0.0001 to 10 µM each time.

For `CC1(N)CCN(C(=O)c2cccc(-c3cnc4[nH]c(-c5ccccc5)cc4c3)n2)CC1` [Compound P-0081, (4-amino-4-methyl-1-piperidyl)-[6-(2-phenyl-1H-pyrrolo[2,3-b]pyridin-5-yl)-2-pyridyl]methanone], the IC50 on FLT3-ITD and on FLT3-D835Y was 0.0001 to 10 µM each time.

Consider `COC(=O)C1(C)CCN(C(=O)c2cccc(-c3cnc4[nH]c(-c5ccccc5)cc4c3)n2)CC1` [Compound P-0092, methyl 4-methyl-1-[6-(2-phenyl-1H-pyrrolo[2,3-b]pyridin-5-yl)pyridine-2-carbonyl]piperidine-4-carboxylate], for which the IC50 at FLT3-ITD and at FLT3-D835Y was 0.0001 to 10 µM throughout.

Regarding `CNC1CCN(Cc2cccc(-c3cnc4[nH]c(-c5ccccc5)cc4c3)n2)C1` (stereo not shown) [Compound P-0087, N-methyl-1-[[6-(2-phenyl-1H-pyrrolo[2,3-b]pyridin-5-yl)-2-pyridyl]methyl]pyrrolidin-3-amine], the half-inhibitory concentration (IC50) at FLT3-ITD and at FLT3-D835Y was 0.0001 to 10 µM in each case.

Take `O=C(NC1CCNCC1)c1n[nH]c2ccc(-c3cnc4[nH]c(-c5ccccc5)cc4c3)cc12` [Compound P-0039, 5-(2-phenyl-1H-pyrrolo[2,3-b]pyridin-5-yl)-N-(4-piperidyl)-1H-indazole-3-carboxamide]: the IC50 on FLT3-ITD and at FLT3-D835Y was 0.0001 to 10 µM throughout.

Turning to `N[C@H]1CCN(C(=O)c2cccc(-c3cnc4[nH]c(-c5ccccc5)cc4c3)c2)C1` [Compound P-0036, [(3S)-3-aminopyrrolidin-1-yl]-[3-(2-phenyl-1H-pyrrolo[2,3-b]pyridin-5-yl)phenyl]methanone], the IC50 on FLT3-ITD and at FLT3-D835Y was 0.0001 to 10 µM each time.

Regarding `NC1CCN(C(=O)c2c[nH]c3ccc(-c4cnc5[nH]c(-c6ccccc6)cc5c4)cc23)CC1` [Compound P-0042, (4-amino-1-piperidyl)-[5-(2-phenyl-1H-pyrrolo[2,3-b]pyridin-5-yl)-1H-indol-3-yl]methanone], the IC50 on FLT3-ITD and on FLT3-D835Y was 0.0001 to 10 µM each time.

On to `CS(=O)(=O)NC1CCN(C(=O)c2cccc(-c3cnc4[nH]c(-c5ccccc5)cc4c3)n2)CC1` [Compound P-0032, N-[1-[6-(2-phenyl-1H-pyrrolo[2,3-b]pyridin-5-yl)pyridine-2-carbonyl]-4-piperidyl]methanesulfonamide], for which the IC50 at FLT3-ITD and at FLT3-D835Y was 0.0001 to 10 µM each time.

As to `O=C(c1cccc(-c2cnc3[nH]c(-c4ccccc4)cc3c2)n1)N1CCC(O)C1` (stereo not shown) [Compound P-0068, (3-hydroxypyrrolidin-1-yl)-[6-(2-phenyl-1H-pyrrolo[2,3-b]pyridin-5-yl)-2-pyridyl]methanone], the IC50 on FLT3-ITD and at FLT3-D835Y was 0.0001 to 10 µM in each case.

For the compound `N=C(N)N1CCN(C(=O)c2cccc(-c3cnc4[nH]c(-c5ccccc5)cc4c3)n2)CC1` [Compound P-0057, 4-[6-(2-phenyl-1H-pyrrolo[2,3-b]pyridin-5-yl)pyridine-2-carbonyl]piperazine-1-carboxamidine], the IC50 on FLT3-ITD and on FLT3-D835Y was 0.0001 to 10 µM in each case.

As to `NC1CCN(C(=O)c2n[nH]c3ccc(-c4cnc5[nH]c(C6=CCN(C(=O)C7CC7)C6)cc5c4)cc23)CC1` [Compound P-0074, (4-amino-1-piperidyl)-[5-[2-[1-(cyclopropanecarbonyl)-2,5-dihydropyrrol-3-yl]-1H-pyrrolo[2,3-b]pyridin-5-yl]-1H-indazol-3-yl]methanone], the IC50 at FLT3-ITD and at FLT3-D835Y was 0.0001 to 10 µM throughout.

With `c1ccc(-c2cc3cc(-c4ccc5[nH]nc(NC6CNC6)c5c4)cnc3[nH]2)cc1` [Compound P-0053, N-(azetidin-3-yl)-5-(2-phenyl-1H-pyrrolo[2,3-b]pyridin-5-yl)-1H-indazol-3-amine], the IC50 on FLT3-ITD and at FLT3-D835Y was 0.0001 to 10 µM in each case.
